Measurements as given in US20200199102A1, “COMPOUNDS THAT PARTICIPATE IN COOPERATIVE BINDING AND USES THEREOF” (Revolution Medicines, Inc., priority 2017, published 2020).
Where a SMILES comes first, the peptide text is derived from it. [ ]: non-standard residue; d: D form. MeBmt = C/C=C/C[C@@H](C)[C@@H](O)[C@H](NC)C(=O)O; NMeY = CN[C@@H](Cc1ccc(O)cc1)C(=O)O; NMeF = CN[C@@H](Cc1ccccc1)C(=O)O; NMeI = CC[C@H](C)[C@H](NC)C(=O)O; NMeT = CN[C@H](C(=O)O)[C@@H](C)O; NMeL = CN[C@@H](CC(C)C)C(=O)O; dNMeV = CN[C@@H](C(=O)O)C(C)C; NMeNle = CCCC[C@H](NC)C(=O)O; NMeNva = CCC[C@H](NC)C(=O)O; NMeV = CN[C@H](C(=O)O)C(C)C; NMeA = CN[C@@H](C)C(=O)O; dNMeA = CN[C@H](C)C(=O)O; Abu = CC[C@H](N)C(=O)O; Sar = CNCC(=O)O

Biological target: T1, Cyclophilin A (Homo sapiens, UniProt P62937)
T1 construct: made in house
Test: AlphaLISA inhibition of binding of biotinylated Cyclosporin A to FLAG tagged Cyclophilin A
Conditions: for % signal: AlphaLISA signal; for % signal / % inhibition of CsA binding to Cyclophilin A: test concentration not given; for IC50: read-out: IC50 value of CsA binding to Cyclophilin A
In short: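 Inhibition of biotin-CsA binding to FLAG-tagged Cyclophilin A read by AlphaLISA (ex 680, em 615 nm). Working stocks were 6 nM biotinylated CsA and 25 nM FLAG-CypA; beads and compound were combined first for 30 min, then protein added for 60 min, all at room temperature in the dark, with DMSO and cyclosporin A controls.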

T1 sequence (P62937 whole entry, species assumed): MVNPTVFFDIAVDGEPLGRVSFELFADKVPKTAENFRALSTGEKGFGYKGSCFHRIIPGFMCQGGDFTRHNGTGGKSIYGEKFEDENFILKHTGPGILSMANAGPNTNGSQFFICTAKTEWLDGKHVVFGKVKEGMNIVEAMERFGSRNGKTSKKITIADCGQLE

% signal [%] | IC50 [nM] | % inhibition of CsA binding to Cyclophilin A [%] | Compound
0.77 | < 2000 | 99.23 | C/C=C/C[C@@H](C)[C@@H](O)[C@H]1C(=O)N[C@@H](CC)C(=O)N(C)CC(=O)N(C)[C@@H](C)C(=O)N[C@@H](C(C)C)C(=O)N(C)[C@@H](C)C(=O)N[C@@H](CC(C)C)C(=O)N[C@H](C)C(=O)N(C)[C@@H](CC(C)C)C(=O)N(C)[C@@H](CC(C)C)C(=O)N(C)[C@@H](C(C)C)C(=O)N1C [Compound C82] (cyclo([MeBmt][Abu][Sar][NMeA]V[NMeA]L[dA][NMeL][NMeL][NMeV]))
0.65 | < 2000 |  | C/C=C/C[C@@H](C)[C@@H](O)[C@H]1C(=O)N[C@@H](CC)C(=O)N(C)CC(=O)N(C)[C@H](C)C(=O)N[C@@H](C(C)C)C(=O)N(C)[C@@H](C)C(=O)N[C@@H](CC(C)C)C(=O)N[C@H](C)C(=O)N(C)[C@@H](CC(C)C)C(=O)N(C)[C@@H](CC(C)C)C(=O)N(C)[C@@H](C(C)C)C(=O)N1C [Compound C83] (cyclo([MeBmt][Abu][Sar][dNMeA]V[NMeA]L[dA][NMeL][NMeL][NMeV]))
6.81 | < 2000 | 93.19 | C/C=C/C[C@@H](C)[C@@H](O)[C@H]1C(=O)N[C@@H](CC)C(=O)N(C)CC(=O)N(C)[C@@H](Cc2ccccc2)C(=O)N[C@@H](C(C)C)C(=O)N(C)[C@@H](C)C(=O)N[C@@H](CC(C)C)C(=O)N[C@H](C)C(=O)N(C)[C@@H](CC(C)C)C(=O)N(C)[C@@H](CC(C)C)C(=O)N(C)[C@@H](C(C)C)C(=O)N1C [Compound C84] (cyclo([MeBmt][Abu][Sar][NMeF]V[NMeA]L[dA][NMeL][NMeL][NMeV]))
0.87 | < 2000 | 99.13 | C/C=C/C[C@@H](C)[C@@H](O)[C@H]1C(=O)N[C@@H](CC)C(=O)N(C)CC(=O)N(C)CC(=O)N[C@@H](C(C)C)C(=O)N(C)[C@@H](C)C(=O)N[C@@H](CC(C)C)C(=O)N[C@H](C)C(=O)N(C)[C@@H](CC(C)C)C(=O)N(C)[C@@H](CC(C)C)C(=O)N(C)[C@@H](C(C)C)C(=O)N1C [Compound C85] (cyclo([MeBmt][Abu][Sar][Sar]V[NMeA]L[dA][NMeL][NMeL][NMeV]))
17.23 | < 2000 | 82.77 | C/C=C/C[C@@H](C)[C@@H](O)[C@H]1C(=O)N[C@@H](CC)C(=O)N(C)CC(=O)N(C)[C@@H](CC(C)C)C(=O)N[C@@H](C(C)C)C(=O)N(C)[C@@H](C)C(=O)N[C@@H](CC(C)C)C(=O)N[C@H](C)C(=O)N(C)[C@@H](CC(C)C)C(=O)N(C)[C@@H](CC(C)C)C(=O)N(C)[C@@H](C(C)C)C(=O)N1C [Compound C86] (cyclo([MeBmt][Abu][Sar][NMeL]V[NMeA]L[dA][NMeL][NMeL][NMeV]))
4.53 | < 2000 | 95.47 | C/C=C/C[C@@H](C)[C@@H](O)[C@H]1C(=O)N[C@@H](CC)C(=O)N(C)CC(=O)N(C)[C@@H]([C@@H](C)O)C(=O)N[C@@H](C(C)C)C(=O)N(C)[C@@H](C)C(=O)N[C@@H](CC(C)C)C(=O)N[C@H](C)C(=O)N(C)[C@@H](CC(C)C)C(=O)N(C)[C@@H](CC(C)C)C(=O)N(C)[C@@H](C(C)C)C(=O)N1C [Compound C87] (cyclo([MeBmt][Abu][Sar][NMeT]V[NMeA]L[dA][NMeL][NMeL][NMeV]))
5.94 | < 2000 | 94.06 | C/C=C/C[C@@H](C)[C@@H](O)[C@H]1C(=O)N[C@@H](CC)C(=O)N(C)CC(=O)N(C)[C@@H](Cc2ccc(O)cc2)C(=O)N[C@@H](C(C)C)C(=O)N(C)[C@@H](C)C(=O)N[C@@H](CC(C)C)C(=O)N[C@H](C)C(=O)N(C)[C@@H](CC(C)C)C(=O)N(C)[C@@H](CC(C)C)C(=O)N(C)[C@@H](C(C)C)C(=O)N1C [Compound C88] (cyclo([MeBmt][Abu][Sar][NMeY]V[NMeA]L[dA][NMeL][NMeL][NMeV]))
3.10 | < 2000 | 96.90 | C/C=C/C[C@@H](C)[C@@H](O)[C@H]1C(=O)N[C@@H](CC)C(=O)N(C)CC(=O)N(C)[C@@H](C(C)C)C(=O)N[C@@H](C(C)C)C(=O)N(C)[C@@H](C)C(=O)N[C@@H](CC(C)C)C(=O)N[C@H](C)C(=O)N(C)[C@@H](CC(C)C)C(=O)N(C)[C@@H](CC(C)C)C(=O)N(C)[C@@H](C(C)C)C(=O)N1C [Compound C89] (cyclo([MeBmt][Abu][Sar][NMeV]V[NMeA]L[dA][NMeL][NMeL][NMeV]))
6.46 | < 2000 | 93.54 | C/C=C/C[C@@H](C)[C@@H](O)[C@H]1C(=O)N[C@@H](CC)C(=O)N(C)CC(=O)N(C)[C@@H](CCC)C(=O)N[C@@H](C(C)C)C(=O)N(C)[C@@H](C)C(=O)N[C@@H](CC(C)C)C(=O)N[C@H](C)C(=O)N(C)[C@@H](CC(C)C)C(=O)N(C)[C@@H](CC(C)C)C(=O)N(C)[C@@H](C(C)C)C(=O)N1C [Compound C90] (cyclo([Abu][Sar][NMeNva]V[NMeA]L[dA][NMeL][NMeL][NMeV][MeBmt]))
5.17 | < 2000 | 94.83 | C/C=C/C[C@@H](C)[C@@H](O)[C@H]1C(=O)N[C@@H](CC)C(=O)N(C)CC(=O)N(C)[C@H](C(C)C)C(=O)N[C@@H](C(C)C)C(=O)N(C)[C@@H](C)C(=O)N[C@@H](CC(C)C)C(=O)N[C@H](C)C(=O)N(C)[C@@H](CC(C)C)C(=O)N(C)[C@@H](CC(C)C)C(=O)N(C)[C@@H](C(C)C)C(=O)N1C [Compound C91] (cyclo([Abu][Sar][dNMeV]V[NMeA]L[dA][NMeL][NMeL][NMeV][MeBmt]))
9.00 | < 2000 | 91.00 | C/C=C/C[C@@H](C)[C@@H](O)[C@H]1C(=O)N[C@@H](CC)C(=O)N(C)CC(=O)N(C)[C@@H](CCCC)C(=O)N[C@@H](C(C)C)C(=O)N(C)[C@@H](C)C(=O)N[C@@H](CC(C)C)C(=O)N[C@H](C)C(=O)N(C)[C@@H](CC(C)C)C(=O)N(C)[C@@H](CC(C)C)C(=O)N(C)[C@@H](C(C)C)C(=O)N1C [Compound C92] (cyclo([Abu][Sar][NMeNle]V[NMeA]L[dA][NMeL][NMeL][NMeV][MeBmt]))
1.28 | < 2000 | 98.72 | C/C=C/C[C@@H](C)[C@@H](O)[C@H]1C(=O)N[C@@H](CC)C(=O)N(C)CC(=O)N(C)[C@@H]([C@@H](C)CC)C(=O)N[C@@H](C(C)C)C(=O)N(C)[C@@H](CC(C)C)C(=O)N[C@@H](CC)C(=O)N[C@H](C)C(=O)N(C)[C@@H](CC(C)C)C(=O)N(C)[C@@H](CC(C)C)C(=O)N(C)[C@@H](C(C)C)C(=O)N1C [Compound C93] (cyclo([Abu][Sar][NMeI]V[NMeL][Abu][dA][NMeL][NMeL][NMeV][MeBmt]))
3.71 | < 2000 | 96.29 | C/C=C/C[C@@H](C)[C@@H](O)[C@H]1C(=O)N[C@@H](CC)C(=O)N(C)CC(=O)N(C)[C@@H](C)C(=O)N[C@@H](C(C)C)C(=O)N(C)[C@@H](CC(C)C)C(=O)N[C@@H](CC)C(=O)N[C@H](C)C(=O)N(C)[C@@H](CC(C)C)C(=O)N(C)[C@@H](CC(C)C)C(=O)N(C)[C@@H](C(C)C)C(=O)N1C [Compound C94] (cyclo([Abu][Sar][NMeA]V[NMeL][Abu][dA][NMeL][NMeL][NMeV][MeBmt]))
6.90 | < 2000 | 93.10 | C/C=C/C[C@@H](C)[C@@H](O)[C@H]1C(=O)N[C@@H](CC)C(=O)N(C)CC(=O)N(C)[C@H](C)C(=O)N[C@@H](C(C)C)C(=O)N(C)[C@@H](CC(C)C)C(=O)N[C@@H](CC)C(=O)N[C@H](C)C(=O)N(C)[C@@H](CC(C)C)C(=O)N(C)[C@@H](CC(C)C)C(=O)N(C)[C@@H](C(C)C)C(=O)N1C [Compound C95] (cyclo([Abu][Sar][dNMeA]V[NMeL][Abu][dA][NMeL][NMeL][NMeV][MeBmt]))
5.00 | < 2000 | 95.00 | C/C=C/C[C@@H](C)[C@@H](O)[C@H]1C(=O)N[C@@H](CC)C(=O)N(C)CC(=O)N(C)[C@@H](Cc2ccccc2)C(=O)N[C@@H](C(C)C)C(=O)N(C)[C@@H](CC(C)C)C(=O)N[C@@H](CC)C(=O)N[C@H](C)C(=O)N(C)[C@@H](CC(C)C)C(=O)N(C)[C@@H](CC(C)C)C(=O)N(C)[C@@H](C(C)C)C(=O)N1C [Compound C96] (cyclo([Abu][Sar][NMeF]V[NMeL][Abu][dA][NMeL][NMeL][NMeV][MeBmt]))
6.42 | < 2000 | 93.58 | C/C=C/C[C@@H](C)[C@@H](O)[C@H]1C(=O)N[C@@H](CC)C(=O)N(C)CC(=O)N(C)CC(=O)N[C@@H](C(C)C)C(=O)N(C)[C@@H](CC(C)C)C(=O)N[C@@H](CC)C(=O)N[C@H](C)C(=O)N(C)[C@@H](CC(C)C)C(=O)N(C)[C@@H](CC(C)C)C(=O)N(C)[C@@H](C(C)C)C(=O)N1C [Compound C97] (cyclo([Abu][Sar][Sar]V[NMeL][Abu][dA][NMeL][NMeL][NMeV][MeBmt]))
4.70 | < 2000 | 95.30 | C/C=C/C[C@@H](C)[C@@H](O)[C@H]1C(=O)N[C@@H](CC)C(=O)N(C)CC(=O)N(C)[C@@H](CC(C)C)C(=O)N[C@@H](C(C)C)C(=O)N(C)[C@@H](CC(C)C)C(=O)N[C@@H](CC)C(=O)N[C@H](C)C(=O)N(C)[C@@H](CC(C)C)C(=O)N(C)[C@@H](CC(C)C)C(=O)N(C)[C@@H](C(C)C)C(=O)N1C [Compound C98]
2.59 | < 2000 | 97.41 | C/C=C/C[C@@H](C)[C@@H](O)[C@H]1C(=O)N[C@@H](CC)C(=O)N(C)CC(=O)N(C)[C@@H]([C@@H](C)O)C(=O)N[C@@H](C(C)C)C(=O)N(C)[C@@H](CC(C)C)C(=O)N[C@@H](CC)C(=O)N[C@H](C)C(=O)N(C)[C@@H](CC(C)C)C(=O)N(C)[C@@H](CC(C)C)C(=O)N(C)[C@@H](C(C)C)C(=O)N1C [Compound C99] (cyclo([Abu][Sar][NMeT]V[NMeL][Abu][dA][NMeL][NMeL][NMeV][MeBmt]))
